Source: patent US20090170882A1, “Methods and compositions” (priority 2004, published 2009)

What was measured:
A549 cells = settings: data provided by National Cancer Institute, Developmental Therapeutic Program; cited from earlier work
[1] = system: tumor cell lines including SKOV3 and Colo205; assay: Inhibition of cellular proliferation in tumor cell lines (MTS, 48 hours); format: cell-based, human; settings: various tumor cell lines including SKOV3 and Colo205; 'typically'
Procedure: Cells were plated in 96-well plates at densities from 1000-2500 cells/well of a 96-well plate and allowed to adhere/grow for 24 hours. They were then treated with various concentrations of drug for 48 hours. The time at which compounds are added is considered T0. A tetrazolium-based assay using the reagent 3-(4,5-dimethylthiazol-2-yl)-5-(3-carboxymethoxyphenyl)-2-(4-sulfophenyl)-2H-tetrazolium (MTS) (U.S. Pat. No. 5,185,450) (see Promega product catalog #G3580, CellTiter 96® AQueous One Solution Cell Proliferation Assay) was used to determine the number of viable cells at T0 and the number of cells remaining after 48 hours compound exposure. The number of cells remaining after 48 hours was compared to the number of viable cells at the time of drug addition, allowing for calculation of growth inhibition.
The growth over 48 hours of cells in control wells that had been treated with vehicle only (0.25% DMSO) is considered 100% growth and the growth of cells in wells with compounds is compared to this.
An IC50 was calculated by plotting the concentration of compound in μM vs the percentage of cell growth of cell growth in treated wells. The IC50 calculated for the compounds is the estimated concentration at which growth is inhibited by 50% compared to control, i.e., the concentration at which:
All concentrations of compounds are tested in duplicate and controls are averaged over 12 wells. A very similar 96-well plate layout and IC50 calculation scheme is used by the National Cancer Institute (see Monks, et al., J. Natl. Cancer Inst. 83:757-766 (1991)).

KSP motor domain = molecular target: T1, KSP motor domain (Homo sapiens, UniProt P52732); assay: KSP ATPase assay (IC50 for KSP activity); format: biochemical
T1 construct: 100 nM KSP motor domain, 50 μg/ml microtubules
T1 sequence (P52732 18-359 limits assumed): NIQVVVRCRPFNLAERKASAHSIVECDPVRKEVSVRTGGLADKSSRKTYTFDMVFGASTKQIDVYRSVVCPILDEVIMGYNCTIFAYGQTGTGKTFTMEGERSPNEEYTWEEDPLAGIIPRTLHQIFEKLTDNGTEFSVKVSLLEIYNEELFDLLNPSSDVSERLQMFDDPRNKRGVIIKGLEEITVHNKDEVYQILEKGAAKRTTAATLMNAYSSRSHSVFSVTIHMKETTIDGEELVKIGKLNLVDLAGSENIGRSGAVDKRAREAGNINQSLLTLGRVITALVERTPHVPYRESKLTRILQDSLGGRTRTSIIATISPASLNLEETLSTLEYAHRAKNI
Procedure: One measure of inhibition is IC50, defined as the concentration of the composition at which the activity of KSP is decreased by fifty percent relative to a control. Preferred compositions have […] of less than about 1 mM, with preferred embodiments having IC50's of less than about 100 μM, with more preferred embodiments having IC50's of less than about 10 μM, with particularly preferred embodiments having IC50's of less than about 1 μM, and especially preferred embodiments having IC50's of less than about 100 nM, and with the most preferred embodiments having IC50's of less than about 10 nM. Measurement of IC50 is done using an ATPase assay.
Measurement of a composition's IC50 for KSP activity uses an ATPase assay. The following solutions are used: Solution 1 consists of 3 mM phosphoenolpyruvate potassium salt (Sigma P-7127), 2 mM ATP (Sigma A-3377), 1 mM DTT (Sigma D-9779), 5 μM paclitaxel (Sigma T-7402), 10 ppm antifoam 289 (Sigma A-8436), 25 mM Pipes/KOH pH 6.8 (Sigma P6757), 2 mM MgC12 (VWR JT400301), and 1 mM EGTA (Sigma E3889). Solution 2 consists of 1 mM NADH (Sigma N8129), 0.2 mg/ml BSA (Sigma A7906), pyruvate kinase 7 U/ml, L-lactate dehydrogenase 10 U/ml (Sigma P0294), 100 nM KSP motor domain, 50 μg/ml microtubules, 1 mM DTT (Sigma D9779), 5 μM paclitaxel (Sigma T-7402), 10 ppm antifoam 289 (Sigma A-8436), 25 mM Pipes/KOH pH 6.8 (Sigma P6757), 2 mM MgC12 (VWR JT4003-01), and 1 mM EGTA (Sigma E3889). Serial dilutions (8-12 two-fold dilutions) of the composition are made in a 96-well microtiter plate (Corning Costar 3695) using Solution 1. Following serial dilution each well has 50 μl of Solution 1. The reaction is started by adding 50 μl of solution 2 to each well. This may be done with a multichannel pipettor either manually or with automated liquid handling devices. The microtiter plate is then transferred to a microplate absorbance reader and multiple absorbance readings at 340 nm are taken for each well in a kinetic mode. The observed rate of change, which is proportional to the ATPase rate, is then plotted as a function of the compound concentration. For a standard IC50 determination the data acquired is fit by the following four parameter equation using a nonlinear fitting program (e.g., Grafit 4): […]
where y is the observed rate and x the compound concentration. […] By this we mean that although most of the compounds that inhibited KSP activity biochemically did inhibit cell proliferation, for some, at the highest concentration tested (generally about 20 μM), cell growth was inhibited less than 50%. […] Anti-proliferative compounds that have been successfully applied in the clinic to treatment of cancer (cancer chemotherapeutics) have IC50's that vary greatly. […]

Compound | IC50 (A549 cells) [nM] | IC50 for inhibition of proliferation of tumor cell lines [1] | IC50 for inhibition of KSP (KSP motor domain)
O=c1[nH]cc(F)c(=O)[nH]1 [5-fluorouracil] | 1000 | – | –
Nc1cccc2c1[nH]c1ccc(C(F)(F)F)cc12 [6-(trifluoromethyl)-9H-carbazol-1-ylamine] | – | not active | not active
CS(=O)(=O)Nc1ccc2[nH]c3ccc(C(F)(F)F)cc3c2c1 [6-(trifluoromethyl-9H-carbazol-3-yl)-methanesulfonamide] | – | not active | not active
NC(=O)Nc1ccc2[nH]c3ccc(C(F)(F)F)cc3c2c1 [(6-Trifluoromethyl-9H-carbazol-3-yl)-urea] | – | not active | not active
CS(=O)(=O)Nc1cccc2c1[nH]c1ccc(C(F)(F)F)cc12 [N-[6-(trifluoromethyl)-9H-carbazol-1-yl]methanesulfonamide] | – | not active | not active
COc1cccc2c1C(=O)c1c(O)c3c(c(O)c1C2=O)C[C@@](O)(C(=O)CO)C[C@@H]3O[C@H]1C[C@H](N)[C@H](O)[C@H](C)O1 [doxorubicin] | 63 | – | –
NC(=O)NO [hydroxyurea] | 500000 | – | –
CC(=O)O[C@H]1C(=O)[C@@]2(C)[C@H]([C@H](OC(=O)c3ccccc3)[C@]3(O)C[C@H](OC(=O)[C@H](O)[C@@H](NC(=O)c4ccccc4)c4ccccc4)C(C)=C1C3(C)C)[C@]1(OC(C)=O)CO[C@@H]1C[C@@H]2O [paclitaxel] | 4 | – | –
